Assay [1] concerns HTM cells. The settings on record: for reduction in HA secretion: T3-supplemented vs T3-stripped media (No Tx).
The test system of assay [2] is HTM cells. The settings on record: 10^−7 M, non-confluent cultures, serum-free, day 10, vs controls lacking T3.
The test system of another assay is CD44E. The settings on record: HTM cells exposed to supplemental T3 for 18 hours.
Another assay relates to CD44-v 3. The settings on record: HTM cells exposed to supplemental T3 for 18 hours.
Assay [3] relates to Normal pigmented Dutch rabbits.
Assay [4] deals with HTM cells. The settings on record: 10^−7M.
Experimental: The assay system visualizes the cell's extracellular matrix by taking advantage of its ability to exclude added formalized red blood cells from an area around the cell. Proteoglycan monomer and HA are added to the cells in excess as pericellular matrix assembly is observed by microscopy.
HTM cells were plated on 35-mm dishes at a density of 1×10^4 cells per plate. […] For exogenous matrix assembly, cells were then incubated for 3 hours at 37° C. with 3.0 mg/ml of aggregating proteoglycan monomer (purified from rat chondrosarcoma tumor (Ref. 1)) and 15 μg/ml of hyaluronan (grade 1, Sigma Chemical Co., St. Louis, Mo.). The medium was removed and 0.75 ml of a suspension of formaldehyde fixed red blood cells (1×10^8 cells/ml) in phosphate buffered saline with 0.1% bovine serum albumin was added to each well of cells. After 10 minutes the cells and extracellular matrices (ECMs) were observed visualized by phase contrast microscopy (REF 2, 3). The cell matrices were categorized into one of three groups. Cells having no coats have no visible ECM. Cells having small coats have a visible ECM that extends less than the width of the cell's nucleus out from the cell's plasma membrane. Cells having large coats have a visible ECM that extends greater than the width of the cell's nucleus out from the cell's plasma membrane.

Like-named read-outs stand apart in the source and are kept apart here.

Experimental for CD44-v 3: (§1) To investigate whether CD44 receptors are expressed by HTM cells, four CD44 isoforms can be measured using RT-PCR analysis with probes for CD44s, CD44E, CD44-v1 and CD44-v3. […] RNA was made using RNA TrackTM (Biotecx, Friendswood, Tex.). The RNA was used as a template for the first strand synthesis of cDNA in a reaction mixture containing 1000 U Moloney Murine Leukemia Virus Reverse Transcriptase (BRL, Gaithersburg, Md.), 50 mM random hexamer primer, 50 mM Tris-HCl (pH 8.3), 75 mM KCl, 10 mM dithiothreitol, 3 mM MgC12, 0.5 mM each of dGTP, dATP, dTTP and dCTP in 60 ul total volume. The cDNA reactions were carried out at 37° C. for 90 min, and then diluted 1:3 or 1:7 in water, pretreated with DEPC. Oligonucleotide primers were diluted to 40 μM in water.
(§2) For RT-PCR, a modified hot start method was used. A quantity of 3-5 μl of cDNA was added to 30 μl of a master mix containing 0.8 μl of each primer, 17 mM Tris-HCI (pH 8.3) and 80 mM KCI. Water was added to the cDNA reactions to a final volume of 40 μl. All reactions were overlaid with light mineral oil and heated to 99° C. After 10 min the reactions were cooled to 94° C. and a 10 μl volume containing 7 mM MgCI2, 1 mM each of dATP, dTTP, dGTP and dCTP, and 1.2 U Taq Polymerase (Perkin-Elmer Cetus, Branchburg, N.J.) was added directly through the oil overlay. […]
Experimental for CD44E: as §1, §2

For 3,3′-5-triiodo-L-thyronine [T3], in the assay with HTM cells [1] (10^−7 M, confluent cells, day 5, vs control cultures), the “fold reduction in secreted HA concentration” value is 2.95 fold. In addition, the “reduction in HA secretion” value is given as 57% with HTM cells [1] (day 2, FIG. 1) and 66% in the assay with HTM cells [1] (day 4, FIG. 1). Further, the “T3 concentration of maximal inhibition of HA production” value in the assay with HTM cells [1] (cultured HTM cells, FIG. 2) is 10^−7-10^−6 M. Besides, in the assay on HTM cells [1] (non-confluent (less than 75% confluent) cells), the “reduction of HA concentration in the media, non-confluent vs confluent treated cells” value is listed as “even greater reduction”. The EC50 in the assay on HTM cells [1] (read-out: half maximal concentration for reduction of HA concentration, confluent cells, dose response curve FIG. 2) was around 5 nM. For the same substance, the “fold increase in secreted hyaluronidase activity” value in the assay with HTM cells [2] is 1.9 fold. Further, in the assay with CD44E, the “expression of CD44E isoform” value was “dramatic reduction”. The “expression of CD44-v 3 isoform” value in the assay on CD44-v 3 is on record as “dramatic reduction”. For the same substance, the “decrease in IOP within three weeks of administration” value in assay [3] (five rabbits) is given as “at least some detectable decrease in IOP”. Further, in assay [3] (one rabbit), the “largest decrease in IOP after three weeks of T3 administration” value is recorded as 25%. Moreover, the “fold greater number of cells with no coats than cells grown in the absence of T3” value is around 2 fold in the assay with HTM cells [4] (2 days) and “more than 4 fold” in the assay with HTM cells [4] (4 days).

The values are drawn from US6555582B1, “Eye treatments using synthetic thyroid hormone compositions” (The Regents of the University of California, priority 1996, dated 2003).
